Key:
[1] = molecular target: T1, Tyrosine-protein kinase JAK2 (Homo sapiens, UniProt O60674); settings: HEK293F, dose 100.0 µM
[2] = molecular target: T1, Tyrosine-protein kinase JAK2; assay: biochemical
cells = type: functional, tissue-based, UKE-1; settings: Homo sapiens, UKE1, 72 h

T1 sequence (O60674 whole entry): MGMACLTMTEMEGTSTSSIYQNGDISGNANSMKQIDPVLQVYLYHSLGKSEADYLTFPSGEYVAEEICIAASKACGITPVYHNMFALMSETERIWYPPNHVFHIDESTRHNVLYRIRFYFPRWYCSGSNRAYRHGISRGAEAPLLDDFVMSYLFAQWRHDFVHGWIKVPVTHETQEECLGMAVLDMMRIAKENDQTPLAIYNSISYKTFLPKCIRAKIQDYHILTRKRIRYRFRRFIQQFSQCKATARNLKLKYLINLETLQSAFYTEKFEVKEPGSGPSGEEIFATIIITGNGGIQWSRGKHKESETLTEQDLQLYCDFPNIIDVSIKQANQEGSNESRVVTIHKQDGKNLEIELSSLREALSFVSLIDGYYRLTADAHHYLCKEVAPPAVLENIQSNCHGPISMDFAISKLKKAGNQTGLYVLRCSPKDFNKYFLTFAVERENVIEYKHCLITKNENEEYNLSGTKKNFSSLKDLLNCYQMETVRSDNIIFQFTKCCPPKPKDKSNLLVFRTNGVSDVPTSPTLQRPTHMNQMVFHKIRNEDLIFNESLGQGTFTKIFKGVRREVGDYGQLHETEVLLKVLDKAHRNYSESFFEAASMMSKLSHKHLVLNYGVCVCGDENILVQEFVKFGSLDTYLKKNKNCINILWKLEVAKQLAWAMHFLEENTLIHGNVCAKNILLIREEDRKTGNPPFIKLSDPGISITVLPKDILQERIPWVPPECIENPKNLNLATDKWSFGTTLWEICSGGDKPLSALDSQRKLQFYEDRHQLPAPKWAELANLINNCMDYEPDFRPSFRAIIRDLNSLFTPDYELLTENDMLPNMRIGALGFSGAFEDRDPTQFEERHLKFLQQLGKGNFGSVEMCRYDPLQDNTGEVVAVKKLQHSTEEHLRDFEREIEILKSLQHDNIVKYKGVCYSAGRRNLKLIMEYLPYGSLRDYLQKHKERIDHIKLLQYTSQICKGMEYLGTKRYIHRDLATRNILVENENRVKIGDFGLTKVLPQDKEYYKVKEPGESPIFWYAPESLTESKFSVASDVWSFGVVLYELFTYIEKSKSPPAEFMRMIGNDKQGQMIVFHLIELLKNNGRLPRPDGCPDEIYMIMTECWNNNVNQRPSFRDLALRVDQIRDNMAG

| SMILES | ΔTm [1] | IC50 (cells) | IC50 [2] |
| --- | --- | --- | --- |
| N#CCC(C1CCCC1)n1cc(-c2nc(Nc3ccc(C4CCNCC4)cc3)nc3[nH]ccc23)cn1 (racemic) | 11.8 °C | – | < 0.05 nM |
| Cc1cnc(Nc2ccc(OCCN3CCCC3)cc2)nc1Nc1cccc(S(=O)(=O)NC(C)(C)C)c1 [FEDRATINIB] | – | 660 nM | – |
| Cc1cnc(Nc2ccc(C3CCN(C)CC3)c(F)c2)nc1Nc1ccc(F)c(NS(=O)(=O)C(C)(C)C)c1 | 3.1 °C | 200 nM | – |
| Cc1cnc(Nc2cc(F)c(C3CCN(C)CC3)c(F)c2)nc1Nc1ccc(F)c(NS(=O)(=O)C(C)(C)C)c1 | 3.2 °C | 150 nM | – |
| N#CCCn1cc(-c2nc(Nc3ccc(C4CCNCC4)cc3)nc3[nH]ccc23)cn1 | 7 °C | 4500 nM | – |
| C=CCCn1cc(-c2nc(Nc3ccc(C4CCNCC4)cc3)nc3[nH]ccc23)cn1 | 6.4 °C | 620 nM | – |

Further lines, with some results ahead:

| ΔTm [1] | IC50 (cells) | SMILES | IC50 [2] |
| --- | --- | --- | --- |
| 4.3 °C | 210 nM | Cc1cnc(Nc2ccc(C3CCN(C)CC3)c(F)c2)nc1Nc1ccc2c(c1)N(S(=O)(=O)C(C)(C)C)CC2 | – |
| 12 °C | – | N#CC[C@H](C1CCCC1)n1cc(-c2nc(Nc3ccc(C4CCNCC4)cc3)nc3[nH]ccc23)cn1 | – |
| 8.3 °C | – | N#CC[C@@H](C1CCCC1)n1cc(-c2nc(Nc3ccc(C4CCNCC4)cc3)nc3[nH]ccc23)cn1 | – |

From ChEMBL document CHEMBL4706688 (J Med Chem, 2021)
